Source: patent publication EP1984353B1, “AURORA KINASE MODULATORS AND METHOD OF USE” (Amgen, Inc, priority 2006, dated 2007)
pIC50: −log10 of the molar value. Like-named read-outs stand apart in the source and are kept apart here.

Assays:
AuroraA-TPX2 = target: T1, AuroraA-TPX2 (Homo sapiens, UniProt O14965); assay: AuroraA-TPX2 Homogeneous Time Resolved Fluorescent (HTRF) kinase assay; type: biochemical; details: average, read-out: AurA/TP X2_ IC50_IP (Avg)
T1 construct: 20 µL of AuroraA-TPX2 KD GST; GST
T1 sequence (O14965 133-383 limits assumed): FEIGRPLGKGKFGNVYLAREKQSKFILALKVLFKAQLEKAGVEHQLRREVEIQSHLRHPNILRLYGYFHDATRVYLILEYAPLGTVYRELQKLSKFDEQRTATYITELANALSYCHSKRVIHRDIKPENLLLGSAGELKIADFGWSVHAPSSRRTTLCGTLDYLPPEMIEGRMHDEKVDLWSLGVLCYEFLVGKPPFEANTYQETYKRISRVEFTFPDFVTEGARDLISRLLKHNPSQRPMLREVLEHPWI
T1 sequence (Q9ULW0 1-43 partner limits assumed): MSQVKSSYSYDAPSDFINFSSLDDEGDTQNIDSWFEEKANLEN
Summary of the method: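 Aurora-A/TPX2 phosphorylates biotinylated PLK peptide (about 1 µM) with ATP for about 120 min in 60 mM HEPES pH 7.5, 10 mM MgCl2, 2 mM DTT. EDTA quench, overnight equilibration with Eu-anti-phosphoPLK antibody and SA-APC; HTRF read at 615/655 nm after 320 nm excitation.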

AuroraB = target: T2, AuroraB (Homo sapiens, UniProt Q96GD4); assay: AuroraB Homogeneous Time Resolved Fluorescent (HTRF) kinase assay; type: biochemical; details: average, read-out: AurB_ _IC50_IP (Avg)
T2 construct: 20 µL of AuroraB FL His; His
T2 sequence (Q96GD4 whole entry): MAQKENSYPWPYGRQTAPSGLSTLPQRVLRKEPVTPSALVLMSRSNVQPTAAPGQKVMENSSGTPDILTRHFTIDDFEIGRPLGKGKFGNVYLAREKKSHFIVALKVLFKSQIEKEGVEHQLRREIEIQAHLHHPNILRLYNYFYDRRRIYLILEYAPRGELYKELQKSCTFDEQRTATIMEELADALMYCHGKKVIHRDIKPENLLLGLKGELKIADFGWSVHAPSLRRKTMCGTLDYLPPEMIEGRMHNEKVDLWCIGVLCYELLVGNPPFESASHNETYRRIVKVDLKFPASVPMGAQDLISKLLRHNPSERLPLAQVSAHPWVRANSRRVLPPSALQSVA
Summary of the method: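 Full-length His-tagged AuroraB (400 pM) phosphorylates 0.1 µM biotinylated Histone H3 with 23 µM ATP (Km(app)) in HEPES pH 7.5 with Mg/Mn, about 90 min. EDTA-quenched; Eu-anti-phosphoHistoneH3 and SA-APC HTRF, 655/615 nm ratio as phosphorylation.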

[1] = given as numbers, unit inferred

Nc1nccc(-c2cccnc2Oc2ccc(Nc3nnc(-c4ccccc4OP(=O)(O)O)c4ccccc34)cc2)n1 [compound 368, 2-(4-((4-((3-(2-amino-4-pyrimidinyl)-2-pyridinyl)oxy)phenyl)amino)-1-phthalazinyl)phenyl dihydrogen phosphate]
pIC50 (AuroraA-TPX2; given as class symbols): 5.60 to 6.30
pIC50 (AuroraB; given as class symbols): 5.60 to 6.30

C[C@H](O)c1cccc(-c2nnc(Nc3ccc(Oc4ncccc4-c4ccnc(N)n4)nc3)c3ccccc23)c1 [compound 369, (1S)-1-(3-(4-((6-((3-(2-amino-4-pyrimidinyl)-2-pyridinyl)oxy)-3-pyridinyl)amino)-1-phthalazinyl)phenyl)ethanol]
pIC50 (AuroraA-TPX2; given as class symbols): ≥ 7.00
pIC50 (AuroraB; given as class symbols): ≥ 7.00

Cc1cc(-c2cccc(CO)c2)nnc1Nc1ccc(Oc2ncccc2-c2ccnc(N)n2)cc1 [compound 370, (3-(6-((4-((3-(2-amino-4-pyrimidinyl)-2-pyridinyl)oxy)phenyl)amino)-5-methyl-3-pyridazinyl)phenyl)methanol]
pIC50 (AuroraA-TPX2; given as class symbols): ≥ 7.00
pIC50 (AuroraB; given as class symbols): ≥ 7.00

Nc1cc(-c2cccnc2Oc2ccc(Nc3nnc(-c4ccccc4O)c4ccccc34)cc2)ccn1 [compound 371, 2-(4-((4-((2'-amino-3,4'-bipyridin-2-yl)oxy)phenyl)amino)-1-phthalazinyl)phenol]
pIC50 (AuroraA-TPX2; given as class symbols): 6.30 to 7.00
pIC50 (AuroraB; given as class symbols): ≥ 7.00

COc1ccc(F)c(-c2nnc(Nc3ccc(Oc4ncccc4-c4ccnc(N)n4)cc3)c3ccccc23)c1 [compound 372, N-(4-((3-(2-amino-4-pyrimidinyl)-2-pyridinyl)oxy)phenyl)-4-(2-fluoro-5-(methyloxy)phenyl)-1-phthalazinamine]
pIC50 (AuroraA-TPX2; given as class symbols): ≥ 7.00
pIC50 (AuroraB; given as class symbols): ≥ 7.00

Nc1nccc(-c2cccnc2Oc2ccc(Nc3nnc(-c4cc(O)ccc4F)c4ccccc34)cc2)n1 [compound 373, 3-(4-((4-((3-(2-amino-4-pyrimidinyl)-2-pyridinyl)oxy)phenyl)amino)-1-phthalazinyl)-4-fluorophenol]
pIC50 (AuroraA-TPX2; given as class symbols): ≥ 7.00
pIC50 (AuroraB; given as class symbols): ≥ 7.00

CN(C)CCCOc1cccc(-c2nnc(Nc3ccc(Oc4ncccc4-c4ccnc(N)n4)cc3)c3ccccc23)c1 [compound 374, N-(4-((3-(2-amino-4-pyrimidinyl)-2-pyridinyl)oxy)phenyl)-4-(3-((3-(dimethylamino)propyl)oxy)phenyl)-1-phthalazinamine]
pIC50 (AuroraA-TPX2; given as class symbols): ≥ 7.00
pIC50 (AuroraB; given as class symbols): ≥ 7.00

Nc1nccc(-c2cccnc2Oc2ccc(Nc3nnc(-c4cccc(CO)c4)c4ccccc34)cn2)n1 [compound 375, (3-(4-((6-((3-(2-amino-4-pyrimidinyl)-2-pyridinyl)oxy)-3-pyridinyl)amino)-1-phthalazinyl)phenyl)methanol]
pIC50 (AuroraA-TPX2; given as class symbols): ≥ 7.00
pIC50 (AuroraB; given as class symbols): ≥ 7.00

COc1ccc(F)c(-c2nnc(Nc3ccc(Oc4ncccc4-c4ccnc(N)n4)nc3)c3ccccc23)c1 [compound 376, N-(6-((3-(2-amino-4-pyrimidinyl)-2-pyridinyl)oxy)-3-pyridinyl)-4-(2-fluoro-5-(methyloxy)phenyl)-1-phthalazinamine]
pIC50 (AuroraA-TPX2; given as class symbols): ≥ 7.00
pIC50 (AuroraB; given as class symbols): ≥ 7.00

Nc1nccc(-c2cccnc2Oc2ccc(Nc3nnc(-c4cccc(OC(F)(F)F)c4)c4ccccc34)cc2)n1 [compound 377, N-(4-((3-(2-amino-4-pyrimidinyl)-2-pyridinyl)oxy)phenyl)-4-(3-((trifluoromethyl)oxy)phenyl)-1-phthalazinamine]
pIC50 (AuroraA-TPX2; given as class symbols): ≥ 7.00
pIC50 (AuroraB; given as class symbols): ≥ 7.00

Nc1nccc(-c2cccnc2Oc2ccc(Nc3nnc(-c4cccc(OC(F)(F)F)c4)c4ccccc34)cn2)n1 [compound 378, N-(6-((3-(2-amino-4-pyrimidinyl)-2-pyridinyl)oxy)-3-pyridinyl)-4-(3-((trifluoromethyl)oxy)phenyl)-1-phthalazinamine]
pIC50 (AuroraA-TPX2; given as class symbols): ≥ 7.00
pIC50 (AuroraB; given as class symbols): ≥ 7.00

Nc1nccc(-c2cccnc2Oc2ccc(Nc3nnc(-c4cc(O)ccc4F)c4ccccc34)cn2)n1 [compound 379, 3-(4-((6-((3-(2-amino-4-pyrimidinyl)-2-pyridinyl)oxy)-3-pyridinyl)amino)-1-phthalazinyl)-4-fluorophenol]
pIC50 (AuroraA-TPX2; given as class symbols): ≥ 7.00
pIC50 (AuroraB; given as class symbols): ≥ 7.00

COc1ccc(F)cc1-c1nnc(Nc2ccc(Oc3ncccc3-c3ccnc(N)n3)cc2)c2ccccc12 [compound 380, N-(4-((3-(2-amino-4-pyrimidinyl)-2-pyridinyl)oxy)phenyl)-4-(5-fluoro-2-(methyloxy)phenyl)-1-phthalazinamine]
pIC50 (AuroraA-TPX2; given as class symbols): ≥ 7.00
pIC50 (AuroraB; given as class symbols): ≥ 7.00

COc1ccc(F)cc1-c1nnc(Nc2ccc(Oc3ncccc3-c3ccnc(N)n3)nc2)c2ccccc12 [compound 381, N-(6-((3-(2-amino-4-pyrimidinyl)-2-pyridinyl)oxy)-3-pyridinyl)-4-(5-fluoro-2-(methyloxy)phenyl)-1-phthalazinamine]
pIC50 (AuroraA-TPX2; given as class symbols): 6.30 to 7.00
pIC50 (AuroraB; given as class symbols): ≥ 7.00

Nc1nccc(-c2cccnc2Oc2ccc(Nc3nnc(-c4ccccc4OC(F)(F)F)c4ccccc34)cc2)n1 [compound 382, N-(4-((3-(2-amino-4-pyrimidinyl)-2-pyridinyl)oxy)phenyl)-4-(2-((trifluoromethyl)oxy)phenyl)-1-phthalazinamine]
pIC50 (AuroraA-TPX2; given as class symbols): 6.30 to 7.00
pIC50 (AuroraB; given as class symbols): ≥ 7.00

Nc1nccc(-c2cccnc2Oc2ccc(Nc3nnc(-c4ccccc4OC(F)(F)F)c4ccccc34)cn2)n1 [compound 383, N-(6-((3-(2-amino-4-pyrimidinyl)-2-pyridinyl)oxy)-3-pyridinyl)-4-(2-((trifluoromethyl)oxy)phenyl)-1-phthalazinamine]
pIC50 (AuroraA-TPX2; given as class symbols): 5.60 to 6.30
pIC50 (AuroraB; given as class symbols): ≥ 7.00

Nc1nccc(-c2cccnc2Oc2ccc(Nc3nnc(-c4ccccc4CO)c4ccccc34)cc2)n1 [compound 384, (2-(4-((4-((3-(2-amino-4-pyrimidinyl)-2-pyridinyl)oxy)phenyl)amino)-1-phthalazinyl)phenyl)methanol]
pIC50 (AuroraA-TPX2; given as class symbols): ≥ 7.00
pIC50 (AuroraB; given as class symbols): ≥ 7.00

Nc1nccc(-c2cccnc2Oc2ccc(Nc3nnc(-c4ccccc4CO)c4ccccc34)cn2)n1 [compound 385, (2-(4-((6-((3-(2-amino-4-pyrimidinyl)-2-pyridinyl)oxy)-3-pyridinyl)amino)-1-phthalazinyl)phenyl)methanol]
pIC50 (AuroraA-TPX2; given as class symbols): 6.30 to 7.00
pIC50 (AuroraB; given as class symbols): ≥ 7.00

Nc1nccc(-c2cccnc2Oc2ccc(Nc3nnc(-c4cc(F)ccc4O)c4ccccc34)cc2)n1 [compound 386, 2-(4-((4-((3-(2-amino-4-pyrimidinyl)-2-pyridinyl)oxy)phenyl)amino)-1-phthalazinyl)-4-fluorophenol]
pIC50 (AuroraA-TPX2; given as class symbols): ≥ 7.00
pIC50 (AuroraB; given as class symbols): ≥ 7.00

Nc1nccc(-c2cccnc2Oc2ccc(Nc3nnc(-c4cc(F)ccc4O)c4ccccc34)cn2)n1 [compound 387, 2-(4-((6-((3-(2-amino-4-pyrimidinyl)-2-pyridinyl)oxy)-3-pyridinyl)amino)-1-phthalazinyl)-4-fluorophenol]
pIC50 (AuroraA-TPX2; given as class symbols): ≥ 7.00
pIC50 (AuroraB; given as class symbols): ≥ 7.00

CN(C)CCCOc1cccc(-c2nnc(Nc3ccc(Oc4ncccc4-c4ccnc(N)n4)nc3)c3ccccc23)c1 [compound 388, N-(6-((3-(2-amino-4-pyrimidinyl)-2-pyridinyl)oxy)-3-pyridinyl)4-(3-((3-(dimethylamino)propyl)oxy)phenyl)-1-phthalazinamine]
pIC50 (AuroraA-TPX2; given as class symbols): 6.30 to 7.00
pIC50 (AuroraB; given as class symbols): ≥ 7.00

CN1CCN(CCCNc2nccc(-c3cccnc3Oc3ccc(Nc4nnc(-c5ccccc5)c5ccccc45)cn3)n2)CC1 [compound 389, N-(6-((3-(2-((3-(4-methyl-1-piperazinyl)propyl)amino)-4-pyrimidinyl)-2-pyridinyl)oxy)-3-pyridinyl)-4-phenyl-1-phthalazinamine]
pIC50 (AuroraA-TPX2; given as class symbols): ≥ 7.00
pIC50 (AuroraB; given as class symbols): ≥ 7.00

c1ccc(-c2nnc(Nc3ccc(Oc4ncccc4-c4ccnc(NCCCN5CCNCC5)n4)nc3)c3ccccc23)cc1 [compound 390, 4-phenyl-N-(6-((3-(2-((3-(1-piperazinyl)propyl)amino)-4-pyrimidinyl)-2-pyridinyl)oxy)-3-pyridinyl)-1-phthalazinamine]
pIC50 (AuroraA-TPX2; given as class symbols): ≥ 7.00
pIC50 (AuroraB; given as class symbols): ≥ 7.00

Nc1nccc(-c2cccnc2Oc2ccc(Nc3nnc(-c4ccccc4OP(=O)(O)O)c4ccccc34)cn2)n1 [compound 391, 2-(4-((6-((3-(2-amino-4-pyrimidinyl)-2-pyridinyl)oxy)-3-pyridinyl)amino)-1-phthalazinyl)phenyl dihydrogen phosphate]
pIC50 (AuroraA-TPX2; [1]): 5.80
pIC50 (AuroraB; [1]): 6.19

Nc1nccc(-c2cccnc2Oc2ccc(Nc3nnc(-c4cccc(OP(=O)(O)O)c4)c4ccccc34)cn2)n1 [compound 392, 3-(4-((6-((3-(2-amino-4-pyrimidinyl)-2-pyridinyl)oxy)-3-pyridinyl)amino)-1-phthalazinyl)phenyl dihydrogen phosphate]
pIC50 (AuroraA-TPX2; given as class symbols): 5.60 to 6.30
pIC50 (AuroraB; given as class symbols): 5.60 to 6.30

Nc1nccc(-c2cccnc2Oc2ccc(Nc3nnc(N4CCNCC4)c4ccccc34)cc2)n1 [compound 393, N-(4-((3-(2-amino-4-pyrimidinyl)-2-pyridinyl)oxy)phenyl)-4-(1-piperazinyl)-1-phthalazinamine]
pIC50 (AuroraA-TPX2; given as class symbols): 5.60 to 6.30
pIC50 (AuroraB; given as class symbols): 6.30 to 7.00

Nc1nccc(-c2cccnc2Oc2ccc(Nc3nnc(N4CCN5CCCC5C4)c4ccccc34)cc2)n1 (stereo not drawn) [compound 394, N-(4-((3-(2-amino-4-pyrimidinyl)-2-pyridinyl)oxy)phenyl)-4-(hexahydropyrrolo[1,2-a]pyrazin-2(1H)-yl)-1-phthalazinamine]
pIC50 (AuroraA-TPX2; given as class symbols): ≥ 7.00
pIC50 (AuroraB; given as class symbols): ≥ 7.00
